This passage reports viability, T/C and IC50 results from PubChem BioAssay AID1919015 (Molecular Pharmacology Branch, DTP, NCI, 2023).

The test system of the experiment is OVCAR-5 complex spheroids with HUVEC/MSC, viability, % test/control. Description: Anticancer human tumor OVCAR-5 cell line growth inhibition [AhR].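 For all read-outs here: spheroids exposed to compounds for 7 days.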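 For viability, T/C: 100% = DMSO vehicle control wells.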 The settings on record: for viability, T/C: stronger effect = lower value. In short, it runs like this: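 Complex tumor spheroids co-cultured with HUVEC and human MSC stroma; AhR antagonists tested in combination with standard-of-care and investigational agents. Top concentration at or near clinical Cmax (else 10 microM), half-log dilutions; growth expressed as percent test/control.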

Where [1] appears, read: curve of first compound, second compound 0.1 µM.
[2] abbreviates: curve of first compound, second compound 0.316 µM.
The mark [3] stands for this setting: curve of first compound, second compound 1 µM.
[4] abbreviates: curve of first compound, second compound 3.16 µM.
Where [5] appears, read: curve of first compound, second compound 10 µM.
[6] abbreviates: second compound 0.1 µM, first compound 0.000949 µM.
Setting [7] is: second compound 0.1 µM, first compound 0.003 µM.
Where [8] appears, read: second compound 0.1 µM, first compound 0.00949 µM.
Setting [9] is: second compound 0.1 µM, first compound 0.03 µM.
Setting [10] is: second compound 0.1 µM, first compound 0.0949 µM.
The mark [11] stands for this setting: second compound 0.1 µM, first compound 0.3 µM.
Where [12] appears, read: second compound 0.316 µM, first compound 0.000949 µM.
The mark [13] stands for this setting: second compound 0.316 µM, first compound 0.003 µM.
[14] abbreviates: second compound 0.316 µM, first compound 0.00949 µM.
Setting [15] is: second compound 0.316 µM, first compound 0.03 µM.
[16] abbreviates: second compound 0.316 µM, first compound 0.0949 µM.
The mark [17] stands for this setting: second compound 0.316 µM, first compound 0.3 µM.
[18] abbreviates: second compound 1 µM, first compound 0.000949 µM.
Setting [19] is: second compound 1 µM, first compound 0.003 µM.
Setting [20] is: second compound 1 µM, first compound 0.00949 µM.
[21] abbreviates: second compound 1 µM, first compound 0.03 µM.
Where [22] appears, read: second compound 1 µM, first compound 0.0949 µM.
Setting [23] is: second compound 1 µM, first compound 0.3 µM.
[24] abbreviates: second compound 3.16 µM, first compound 0.000949 µM.
Where [25] appears, read: second compound 3.16 µM, first compound 0.003 µM.
Where [26] appears, read: second compound 3.16 µM, first compound 0.00949 µM.
Where [27] appears, read: second compound 3.16 µM, first compound 0.03 µM.
Setting [28] is: second compound 3.16 µM, first compound 0.0949 µM.
The mark [29] stands for this setting: second compound 3.16 µM, first compound 0.3 µM.
Where [30] appears, read: second compound 10 µM, first compound 0.000949 µM.
Where [31] appears, read: second compound 10 µM, first compound 0.003 µM.
Setting [32] is: second compound 10 µM, first compound 0.00949 µM.
[33] abbreviates: second compound 10 µM, first compound 0.03 µM.
[34] abbreviates: second compound 10 µM, first compound 0.0949 µM.
Where [35] appears, read: second compound 10 µM, first compound 0.3 µM.

Where “and” joins values, the source holds several entries; their conditions need not be identical. Identical values can stand only once.

Turning to `COc1cc(C2c3cc4c(cc3C(OC3OC5COC(C)OC5C(O)C3O)C3COC(=O)C23)OCO4)cc(OC)c1O` (stereo not given), the viability, T/C – broadly, the result in the treated group divided by that in the control group, in per cent – by setting is: (compound 0.0316 µM) 96.3% and 99.9% and 103%; (compound 0.1 µM) 98.8% and 99.4% and 103%; (compound 0.316 µM) 90.1% and 91.7% and 91.1%; (compound 1 µM) 73.2% and 79.8% and 64.9%; (compound 3.16 µM) 50% and 52.3% and 41.3%; (compound 10 µM) 37.2% and 34.4% and 30.3%. For the same compound, the 50% inhibitory concentration (IC50) (commonly the concentration needed to halve the response being measured) (curve of compound) was 3120 nM and 3790 nM and 2030 nM.

Turning to `Nc1ncn(C2CC(O)C(CO)S2)c(=O)n1` (stereo not given) + Cc1ccccc1N=Nc1ccc(NC(=O)c2ccnn2C)c(C)c1, the concentration for half-maximal inhibition (IC50) reads like this: under setting [1], over 300 nM; under setting [2], over 300 nM; under setting [3], over 300 nM; under setting [4], over 300 nM; under setting [5], over 300 nM. In addition, the viability, T/C was 105% under setting [6]; 108% under setting [7]; 105% under setting [8]; 101% under setting [9]; 87.4% under setting [10]; 79% under setting [11]. Moreover, the viability, T/C under setting [12] is 113%; the viability, T/C under setting [13] was 109%; the viability, T/C under setting [14] was 112%; the viability, T/C under setting [15] was 106%; the viability, T/C under setting [16] was 86.5%; the viability, T/C under setting [17] is 77.8%. The viability, T/C was 114% under setting [18]; 115% under setting [19]; 113% under setting [20]; 108% under setting [21]; 95% under setting [22]; 82.5% under setting [23]. For the same compound, the viability, T/C is, setting by setting: under setting [24], 112%; under setting [25], 112%; under setting [26], 114%; under setting [27], 110%; under setting [28], 95.6%; under setting [29], 80%. The viability, T/C under setting [30] is 107%; the viability, T/C under setting [31] is 111%; the viability, T/C under setting [32] was 108%; the viability, T/C under setting [33] was 108%; the viability, T/C under setting [34] is 89.2%; the viability, T/C under setting [35] is 78.8%.

As to `CC(C)CC(NC(=O)C(Cc1ccccc1)NC(=O)c1cnccn1)B(O)O` (stereo not given) + Cc1ccccc1N=Nc1ccc(NC(=O)c2ccnn2C)c(C)c1, the IC50 by setting is: under setting [1], 49.4 nM; under setting [2], 48.2 nM; under setting [3], 50 nM; under setting [4], 48.2 nM; under setting [5], 55.4 nM. Besides, the viability, T/C is 101% under setting [6]; 105% under setting [7]; 96.9% under setting [8]; 69% under setting [9]; 25% under setting [10]; 19.3% under setting [11]. In addition, the viability, T/C under setting [12] is 104%; the viability, T/C under setting [13] was 108%; the viability, T/C under setting [14] is 98.7%; the viability, T/C under setting [15] is 67.1%; the viability, T/C under setting [16] is 25.7%; the viability, T/C under setting [17] was 17.6%. Also, the viability, T/C is 108% under setting [18]; 112% under setting [19]; 101% under setting [20]; 69.4% under setting [21]; 25.5% under setting [22]; 19.6% under setting [23]. Also, the viability, T/C by setting is: under setting [24], 111%; under setting [25], 112%; under setting [26], 105%; under setting [27], 66.1%; under setting [28], 26.9%; under setting [29], 21.5%. Further, the viability, T/C is, setting by setting: under setting [30], 98.9%; under setting [31], 105%; under setting [32], 93.6%; under setting [33], 73.2%; under setting [34], 29.3%; under setting [35], 23.5%.

For `COc1cccc2c1C(=O)c1c(O)c3c(c(O)c1C2=O)CC(O)(C(=O)CO)CC3OC1CC(N)C(O)C(C)O1` (stereo not given), the viability, T/C runs as follows: (compound 0.0316 µM) 66.2% and 56.6% and 74%; (compound 0.1 µM) 55.2% and 47.4% and 58.4%; (compound 0.316 µM) 49.6% and 41.8% and 46.6%; (compound 1 µM) 28.7% and 24.1% and 25.6%; (compound 3.16 µM) 1.66% and 1.72% and 3.06%; (compound 10 µM) 1.46% and 1.1% and 1.11%. The IC50 (curve of compound) is 316 nM and 114 nM and 223 nM.

As for `CC(CO)NC(=O)c1cc(-c2ccc(Cl)cc2)nn(-c2cnn(C)c2)c1=O` (stereo not given), the viability, T/C runs as follows: (compound 0.1 µM) 107% [middle of 20 runs]; (compound 0.316 µM) 108% [middle of 21 runs]; (compound 1 µM) 114% [middle of 21 runs]; (compound 3.16 µM) 103% [middle of 19 runs]; (compound 10 µM) 98.4% [middle of 19 runs]. Moreover, the IC50 (compound alone, run of 08/08/2022) was over 10000 nM.

For the compound `NS(=O)(=O)OCC1CC(n2ccc3c(NC4CCc5ccccc54)ncnc32)CC1O` (stereo not given) + CC(CO)NC(=O)c1cc(-c2ccc(Cl)cc2)nn(-c2cnn(C)c2)c1=O, the IC50 by setting is: under setting [1], 196 nM; under setting [2], 159 nM; under setting [3], 169 nM; under setting [4], 174 nM; under setting [5], 204 nM. For the same compound, the viability, T/C is, setting by setting: (second compound 0.1 µM, first compound 0.0316 µM) 92.9%; (second compound 0.1 µM, first compound 0.1 µM) 66.1%; (second compound 0.1 µM, first compound 0.316 µM) 40.3%; (second compound 0.1 µM, first compound 1 µM) 16.1%; (second compound 0.1 µM, first compound 3.16 µM) 13%; (second compound 0.1 µM, first compound 10 µM) 11.3%. The viability, T/C by setting is: (second compound 0.316 µM, first compound 0.0316 µM) 79.5%; (second compound 0.316 µM, first compound 0.1 µM) 58.9%; (second compound 0.316 µM, first compound 0.316 µM) 37.1%; (second compound 0.316 µM, first compound 1 µM) 14.8%; (second compound 0.316 µM, first compound 3.16 µM) 11.2%; (second compound 0.316 µM, first compound 10 µM) 11.5%. Moreover, the viability, T/C runs as follows: (second compound 1 µM, first compound 0.0316 µM) 85.1%; (second compound 1 µM, first compound 0.1 µM) 61%; (second compound 1 µM, first compound 0.316 µM) 37.6%; (second compound 1 µM, first compound 1 µM) 14.9%; (second compound 1 µM, first compound 3.16 µM) 11.5%; (second compound 1 µM, first compound 10 µM) 11.6%. For the same compound, the viability, T/C is 72.1% (second compound 3.16 µM, first compound 0.0316 µM); 65.3% (second compound 3.16 µM, first compound 0.1 µM); 33.5% (second compound 3.16 µM, first compound 0.316 µM); 13.7% (second compound 3.16 µM, first compound 1 µM); 11.3% (second compound 3.16 µM, first compound 3.16 µM); 11.2% (second compound 3.16 µM, first compound 10 µM). For the same compound, the viability, T/C by setting is: (second compound 10 µM, first compound 0.0316 µM) 75.7%; (second compound 10 µM, first compound 0.1 µM) 65.7%; (second compound 10 µM, first compound 0.316 µM) 40.7%; (second compound 10 µM, first compound 1 µM) 15.7%; (second compound 10 µM, first compound 3.16 µM) 12.6%; (second compound 10 µM, first compound 10 µM) 12.6%.
